In US20060069132A1, “Azolecarboxamide herbicides” (priority 2004, published 2006):

Key:
corn = assay: Test B pre-/postemergence herbicide test; assay type: in vivo, Zea mays
How it was run: (§1)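 Response was scored visually 13 to 15 days after treatment against untreated greenhouse controls, 0 meaning no effect and 100 complete control. Formulations (solvent mixture plus surfactant) went onto soil after planting, onto foliage of 1- to 4-leaf plants, and onto 2-leaf plants in a flooded paddy set including rice and barnyardgrass.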

barnyardgrass = assay: Test B flooded paddy test; assay type: in vivo, Echinochloa crus-galli; conditions: 1000 g ai/ha, scale 0 to 100 (0 no effect, 100 complete control)
How it was run: (§2)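 Visual ratings, 0 (no effect) to 100 (complete control), made versus controls after 13–15 d greenhouse. Paddy plants treated at 2-leaf stage; postemergence plants at 1- to 4-leaf stage, 2–18 cm tall.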

rice = assay: Test B flooded paddy test; assay type: in vivo, Oryza sativa; conditions: 1000 g ai/ha, scale 0 to 100 (0 no effect, 100 complete control)
How it was run: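 Postemergence plants were sprayed with formulated test chemicals at 2 to 18 cm height (1- to 4-leaf stage); paddy species were grown to the 2-leaf stage. After 13 to 15 days in a greenhouse, injury was rated visually against untreated controls on a 0–100 scale (0 = no effect, 100 = complete control).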

blackgrass = assay: Test B postemergence herbicide test; assay type: in vivo, Alopecurus myosuroides
How it was run: as §2

[1] = test system: small flower umbrella sedge; assay: Test B flooded paddy test; assay type: in vivo, Cyperus difformis; conditions: 1000 g ai/ha, scale 0 to 100 (0 no effect, 100 complete control)
How it was run: as §2

wheat = assay: Test B postemergence herbicide test; assay type: in vivo, Triticum aestivum; parameters: key to Wheat plant response rating: 0 = no effect, 100 = complete control; conditions: postemergence
How it was run: (§3)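 After treating 2-leaf paddy plants or 2–18 cm postemergence plants (1 to 4 leaves) with formulated chemical, researchers kept them in a greenhouse for 13–15 days. Effects were judged visually versus controls: 0 indicates none, 100 total control.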

ducksalad = assay: Test B flooded paddy test; assay type: in vivo, Heteranthera limosa; conditions: 1000 g ai/ha, scale 0 to 100 (0 no effect, 100 complete control)
How it was run: as §2

pigweed = assay: Test B pre-/postemergence herbicide test; assay type: in vivo, Amaranthus retroflexus
How it was run: as §1

velvetleaf = assay: Test B pre-/postemergence herbicide test; assay type: in vivo, Abutilon theophrasti
How it was run: as §1

giant foxtail = assay: Test B pre-/postemergence herbicide test; assay type: in vivo, Setaria faberi
How it was run: as §1

cocklebur = assay: Test B pre-/postemergence herbicide test; assay type: in vivo, Xanthium strumarium
How it was run: (§4)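 Visual rating, 0 (no effect) to 100 (complete control), versus untreated controls after 13–15 d in greenhouse. Pre- and postemergence applications (postemergence plants 2–18 cm, 1–4 leaves); flooded paddy arm at 2-leaf stage. Compounds in non-phytotoxic solvent plus surfactant.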

morningglory = assay: Test B pre-/postemergence herbicide test; assay type: in vivo, Ipomoea coccinea
How it was run: as §4

lambsquarters = assay: Test B pre-/postemergence herbicide test; assay type: in vivo, Chenopodium album
How it was run: as §1

wild oat = assay: Test B postemergence herbicide test; assay type: in vivo, Avena fatua
How it was run: as §3

Surinam grass = assay: Test B pre-/postemergence herbicide test; assay type: in vivo, Urochloa decumbens
How it was run: as §1

[2] = 500 g ai/ha; visual rating 0-100, 0 no effect, 100 complete control; preemergence
[3] = postemergence, 125 g ai/ha; visual rating, scale 0 (no effect) to 100 (complete control)
[4] = postemergence, 500 g ai/ha; visual rating, scale 0 (no effect) to 100 (complete control)
[5] = preemergence, 125 g ai/ha; 0 to 100 scale, 0 is no effect, 100 is complete control
[6] = 125 g ai/ha; 0 is no effect, 100 is complete control; preemergence
[7] = 125 g ai/ha; visual rating, scale 0 (no effect) to 100 (complete control); postemergence
[8] = 500 g ai/ha; visual rating, 0 = no effect, 100 = complete control; preemergence
[9] = postemergence, 500 g ai/ha; scale 0 to 100, 0 is no effect, 100 is complete control

## C#CCNC(=O)c1cccc(NC(=O)c2cc(C(C)(C)C)nn2CC)n1 [Compound 147]
corn; [2]
  Plant response rating, Corn: 10
corn; [3]
  Corn plant response rating: 10
corn; [4]
  Corn plant response rating: 30
corn; [5]
  Plant response rating, Corn: 10
barnyardgrass; visual rating, 13 to 15 days
  Barnyardgrass plant response rating: 60
rice; visual rating, 13 to 15 days
  Rice plant response rating: 50
blackgrass; [3]
  Blackgrass plant response rating: 10
blackgrass; [4]
  Blackgrass plant response rating: 20
[1]; visual rating, 13 to 15 days
  Sedge, Umbrella plant response rating: 90
wheat; 500 g ai/ha, visual rating, scale 0 (no effect) to 100 (complete control)
  Wheat plant response rating: 20
ducksalad; visual rating, 13 to 15 days
  Ducksalad plant response rating: 80
pigweed; [2]
  Plant response rating, Pigweed: 100
pigweed; [3]
  Pigweed plant response rating: 80
pigweed; [4]
  Pigweed plant response rating: 90
pigweed; [5]
  Plant response rating, Pigweed: 100
velvetleaf; [2]
  Plant response rating, Velvetleaf: 80
velvetleaf; [3]
  Velvetleaf plant response rating: 60
velvetleaf; [4]
  Velvetleaf plant response rating: 60
velvetleaf; [5]
  Plant response rating, Velvetleaf: 30
Giant foxtail; [2]
  Plant response rating, Foxtail, Giant: 100
Giant foxtail; [3]
  Foxtail, Giant plant response rating: 30
Giant foxtail; [4]
  Foxtail, Giant plant response rating: 40
Giant foxtail; [5]
  Plant response rating, Foxtail, Giant: 70
cocklebur; [2]
  Plant response rating, Cocklebur: 10
cocklebur; [3]
  Cocklebur plant response rating: 0
cocklebur; [4]
  Cocklebur plant response rating: 80
cocklebur; [5]
  Plant response rating, Cocklebur: 0
morningglory; [2]
  Plant response rating, Morningglory: 30
morningglory; [3]
  Morningglory plant response rating: 0
morningglory; [4]
  Morningglory plant response rating: 30
morningglory; [5]
  Plant response rating, Morningglory: 0
lambsquarters; [2]
  Plant response rating, Lambsquarters: 100
lambsquarters; [3]
  Lambsquarters plant response rating: 80
lambsquarters; [4]
  Lambsquarters plant response rating: 90
lambsquarters; [5]
  Plant response rating, Lambsquarters: 90
Wild oat; [3]
  Oat, Wild plant response rating: 0
Wild oat; [4]
  Oat, Wild plant response rating: 30
Surinam grass; [2]
  Plant response rating, Surinam Grass: 80
Surinam grass; [3]
  Surinam Grass plant response rating: 20
Surinam grass; [4]
  Surinam Grass plant response rating: 30
Surinam grass; [5]
  Plant response rating, Surinam Grass: 20

## CCN(CC)C(=O)c1cccc(NC(=O)c2cc(C(C)(C)C)nn2C)n1 [Compound 314]
corn; [6]
  Plant response rating (0 to 100 scale), Corn: 0
corn; [7]
  Corn plant response rating: 10
corn; [8]
  Plant response rating, Corn: 10
corn; [9]
  Corn plant response rating: 20
barnyardgrass
  Barnyardgrass plant response rating: 30
rice
  Rice plant response rating: 0
blackgrass; [7]
  Blackgrass plant response rating: 10
blackgrass; [9]
  Blackgrass plant response rating: 20
[1]
  Sedge, Umbrella plant response rating: 60
wheat; 125 g ai/ha, visual rating, scale 0 (no effect) to 100 (complete control)
  Wheat plant response rating: 0
wheat; 500 g ai/ha, scale 0 to 100, 0 is no effect, 100 is complete control
  Wheat plant response rating: 10
ducksalad
  Ducksalad plant response rating: 0
pigweed; [6]
  Plant response rating (0 to 100 scale), Pigweed: 90
pigweed; [7]
  Pigweed plant response rating: 60
pigweed; [8]
  Plant response rating, Pigweed: 100
pigweed; [9]
  Pigweed plant response rating: 70
velvetleaf; [6]
  Plant response rating (0 to 100 scale), Velvetleaf: 20
velvetleaf; [7]
  Velvetleaf plant response rating: 20
velvetleaf; [8]
  Plant response rating, Velvetleaf: 100
velvetleaf; [9]
  Velvetleaf plant response rating: 30
Giant foxtail; [6]
  Plant response rating (0 to 100 scale), Foxtail, Giant: 30
Giant foxtail; [7]
  Foxtail, Giant plant response rating: 20
Giant foxtail; [8]
  Plant response rating, Foxtail, Giant: 100
Giant foxtail; [9]
  Foxtail, Giant plant response rating: 20
cocklebur; [6]
  Plant response rating (0 to 100 scale), Cocklebur: 0
cocklebur; [7]
  Cocklebur plant response rating: 10
cocklebur; [8]
  Plant response rating, Cocklebur: 0
cocklebur; [9]
  Cocklebur plant response rating: 30
morningglory; [6]
  Plant response rating (0 to 100 scale), Morningglory: 0
morningglory; [7]
  Morningglory plant response rating: 20
morningglory; [8]
  Plant response rating, Morningglory: 20
morningglory; [9]
  Morningglory plant response rating: 80
lambsquarters; [6]
  Plant response rating (0 to 100 scale), Lambsquarters: 20
lambsquarters; [7]
  Lambsquarters plant response rating: 30
lambsquarters; [8]
  Plant response rating, Lambsquarters: 80
lambsquarters; [9]
  Lambsquarters plant response rating: 60
Wild oat; [7]
  Oat, Wild plant response rating: 10
Wild oat; [9]
  Oat, Wild plant response rating: 30
Surinam grass; [6]
  Plant response rating (0 to 100 scale), Surinam Grass: 20
Surinam grass; [7]
  Surinam Grass plant response rating: 20
Surinam grass; [8]
  Plant response rating, Surinam Grass: 80
Surinam grass; [9]
  Surinam Grass plant response rating: 20
